Source: article PMC3242765, “Inhibitors of Alphavirus Entry and Replication Identified with a Stable Chikungunya Replicon Cell Line and Virus-Based Assays” (PLoS ONE, 2011)

The molecules below were run on SFV-Rluc. Settings: not given.

SMILES | SFV replication % left (surviving fraction, remaining percentage of SFV replication) [%]
CC(C)NCC(O)COc1ccc(CC(N)=O)cc1 (stereo not shown) [Atenolol] | 44.2

Same assay, conditions: Supplementary Table 2, moderately active compounds (25 - 60% remaining), primary screen at 50 µM

SMILES | % left (remaining SFV replication) [%]
O=C(c1ccccc1)c1cc2c(ccc3ccccc32)oc1=O [NC-006] | 39.9
Cc1cc(=O)oc2c3c4c(cc12)CCCN4CCC3 [NC-015] | 34.6
CCN(CC)c1ccc2cc(-c3nc4ccccc4[nH]3)c(=O)oc2c1 [NC-017] | 37.3
O=c1c(-c2ccc(O)cc2)coc2cc(O)cc(O)c12 [NC-042] | 45.6
O=C(O)c1ccc(O)cc1O [NC-055] | 32.1
COc1cc(-c2oc3cc(O)cc(O)c3c(=O)c2O)ccc1O [NC-056] | 28.9
CCN(CC)CCCC(C)Nc1cc(/C=C/c2ccccc2Cl)nc2cc(Cl)ccc12 (stereo not shown) [NC-066] | 45.8
CC(Cc1ccc(O)c(O)c1)C(C)Cc1ccc(O)c(O)c1 (stereo not shown) [NC-071] | 35.6
C[C@@H]1O[C@@H](OC[C@H]2O[C@@H](Oc3c(-c4ccc(O)c(O)c4)oc4cc(O)cc(O)c4c3=O)[C@H](O)[C@@H](O)[C@@H]2O)[C@H](O)[C@H](O)[C@H]1O [NC-090] | 44.1
C=CCC(=NOS(=O)(=O)[O-])SC1OC(CO)C(O)C(O)C1O.O.[K+] (stereo not shown) [NC-096] | 47.6

Same assay, conditions: primary screening of chemical libraries; compounds tested at 50 µM

SMILES | SFV replication % left [%]
COc1ccc(-c2cc(=O)c3c(O)cc(O)cc3o2)cc1 [NC-001] | 78.1
O=c1cc(-c2ccccc2)oc2c1ccc1ccccc12 [NC-002] | 14.6
O=c1cc(-c2ccc(O)cc2)oc2cc(O)cc(O)c12 [NC-003] | 18.0
O=C1O[C@H]([C@@H](O)CO)C(O)=C1O [NC-004] | 81.4
O=C(O)c1ccccc1 [NC-005] | 71.6
O=C(c1ccccc1)c1cc2c(ccc3ccccc32)oc1=O [NC-006] | 39.9
O=c1oc2cc(O)ccc2cc1-c1nc2ccccc2o1 [NC-007] | 21.0
COc1c2ccoc2cc2oc(=O)ccc12 [NC-008] | 46.8
O=C(O)/C=C/c1ccc(O)c(O)c1 [NC-010] | 98.7
Oc1cc(O)c2c(c1)O[C@H](c1ccc(O)c(O)c1)[C@@H](O)C2 [NC-011] | 64.5
Oc1ccccc1O [NC-012] | 58.4
O=c1cc(-c2ccccc2)oc2cc(O)cc(O)c12 [NC-013] | 18.1
O=C(O)/C=C/c1ccccc1O [NC-014] | 77.6
Cc1cc(=O)oc2c3c4c(cc12)CCCN4CCC3 [NC-015] | 34.6
CCN(CC)c1ccc2cc(-c3nc4ccccc4n3C)c(=O)oc2c1 [NC-016] | 12.3
CCN(CC)c1ccc2cc(-c3nc4ccccc4[nH]3)c(=O)oc2c1 [NC-017] | 37.3
O=c1ccc2ccccc2o1 [NC-018] | 68.8
Oc1cc(O)c2cc(O)c(-c3ccc(O)c(O)c3)[o+]c2c1.[Cl-] [NC-019] | 24.5
O=c1c(-c2ccc(O)cc2)coc2cc(O)ccc12 [NC-020] | 76.6
O=c1ccc2ccc(O)c(O)c2o1 [NC-021] | 81.7
CCN(CC)c1ccc2cc(C(=O)c3cccs3)c(=O)oc2c1 [NC-022] | 15.6
O=C(O)c1cccc(O)c1O [NC-023] | 93.1
O=C(O)c1cc(O)ccc1O [NC-024] | 127.8

SMILES | SFV replication % left [%]
O=C(O)c1c(O)cccc1O [NC-025] | 118.7
O=C(O)c1ccc(O)c(O)c1 [NC-026] | 124.5
O=C(O)c1cc(O)cc(O)c1 [NC-027] | 6.9
Cc1ccc(C)c(O)c1 [NC-029] | 84.6
CN(C)c1cccc2c(S(=O)(=O)Cl)cccc12 [NC-032] | 4.6
O=c1oc2c(O)c(O)cc3c(=O)oc4c(O)c(O)cc1c4c23 [NC-033] | 64.9
Oc1cc(O)c2c(c1)O[C@H](c1ccc(O)c(O)c1)[C@H](O)C2 [NC-034] | 97.1
O=C(O[C@@H]1Cc2c(O)cc(O)cc2O[C@@H]1c1ccc(O)c(O)c1)c1cc(O)c(O)c(O)c1 [NC-035] | 94.8
Oc1cc(O)c2c(c1)O[C@H](c1cc(O)c(O)c(O)c1)[C@H](O)C2 [NC-036] | 101.9
O=C(O[C@@H]1Cc2c(O)cc(O)cc2O[C@@H]1c1cc(O)c(O)c(O)c1)c1cc(O)c(O)c(O)c1 [NC-037] | 155.3
CCOc1ccc2c(c1)C(C)=CC(C)(C)N2 [NC-038] | 96.4
COc1cc(/C=C/C(=O)O)ccc1O [NC-039] | 63.4
O=c1cc(-c2ccccc2)oc2ccccc12 [NC-040] | 52.2
O=C(O)c1cc(O)c(O)c(O)c1 [NC-041] | 148.8
O=c1c(-c2ccc(O)cc2)coc2cc(O)cc(O)c12 [NC-042] | 45.6
C[C@]12CC[C@H](O)C[C@H]1CC[C@@H]1[C@@H]2CC[C@]2(C)[C@@H](C3=CC(=O)OC3)[C@@H](O)C[C@]12O [NC-043] | 102.7
O=c1c(O)c(-c2ccc(O)c(O)c2)oc2c(O[C@@H]3O[C@H](CO)[C@@H](O)[C@H](O)[C@H]3O)c(O)cc(O)c12 [NC-044] | 105.8
O=C(OC[C@H]1OC(O)[C@@](O)(COC(=O)c2cc(O)c(O)c(O)c2)[C@@H]1O)c1cc(O)c(O)c(O)c1 (stereo partly shown) [NC-045] | 14.7
COc1ccc([C@@H]2CC(=O)c3c(O)cc(O[C@@H]4O[C@H](CO[C@@H]5O[C@@H](C)[C@H](O)[C@@H](O)[C@H]5O)[C@@H](O)[C@H](O)[C@H]4O)cc3O2)cc1O [NC-046] | 77.7
O=C(CO)c1ccccc1 [NC-047] | 129.7
CC(=O)c1cccc(O)c1 [NC-048] | 125.8
CC(=O)c1ccc(O)cc1 [NC-049] | 29.4
O=C(O)Cc1ccccc1O [NC-050] | 7.3

SMILES | SFV replication % left [%]
O=C(O)Cc1cccc(O)c1 [NC-051] | 110.8
O=C(O)Cc1ccc(O)cc1 [NC-052] | 103.6
Oc1ccc(O)cc1 [NC-053] | 16.9
CC(C)OC(=O)c1cc(O)c(O)c(O)c1 [NC-054] | 124.0
O=C(O)c1ccc(O)cc1O [NC-055] | 32.1
COc1cc(-c2oc3cc(O)cc(O)c3c(=O)c2O)ccc1O [NC-056] | 28.9
O=c1c(O)c(-c2ccc(O)cc2)oc2cc(O)cc(O)c12 [NC-057] | 2.9
COc1c2occc2c(OC)c2c(=O)cc(C)oc12 [NC-058] | 120.6
CCCCCCCCCCCCOC(=O)c1cc(O)c(O)c(O)c1 [NC-059] | 12.3
Oc1cc(O)c2c(c1)OC(c1ccc(O)c(O)c1)C(O)C2O (stereo not shown) [NC-060] | 136.3
O=c1cc(-c2ccc(O)c(O)c2)oc2cc(O)cc(O)c12 [NC-061] | 71.3
O=c1cc(-c2ccc(O)c(O)c2)oc2cc(O[C@@H]3O[C@H](CO)[C@@H](O)[C@H](O)[C@H]3O)cc(O)c12 [NC-062] | 17.8
COc1cc(-c2[o+]c3cc(O)cc(O[C@@H]4O[C@H](CO)[C@@H](O)[C@H](O)[C@H]4O)c3cc2O[C@@H]2O[C@H](CO)[C@@H](O)[C@H](O)[C@H]2O)cc(OC)c1O.[Cl-] [NC-063] | 15.4
COC(=O)c1cc(O)c(O)c(O)c1 [NC-064] | 67.8
Cc1cc(=O)oc2cc(O)ccc12 [NC-065] | 12.0
CCN(CC)CCCC(C)Nc1cc(/C=C/c2ccccc2Cl)nc2cc(Cl)ccc12 (stereo not shown) [NC-066] | 45.8
O.O.O=c1c(O)c(-c2ccc(O)cc2O)oc2cc(O)cc(O)c12 [NC-067] | 82.9
O=c1c(O)c(-c2cc(O)c(O)c(O)c2)oc2cc(O)cc(O)c12 [NC-068] | 2.0
O=C1C[C@@H](c2ccc(O)cc2)Oc2cc(O)cc(O)c21 [NC-069] | -0.0736
Cc1ccc(O)c(O)c1 [NC-070] | 111.1
CC(Cc1ccc(O)c(O)c1)C(C)Cc1ccc(O)c(O)c1 (stereo not shown) [NC-071] | 35.6
CCCCCCCCOC(=O)c1cc(O)c(O)c(O)c1 [NC-072] | 134.4
O=C(O)c1ccccc1C(=O)O [NC-073] | 143.7

SMILES | SFV replication % left [%]
Oc1cc(O)c2c(c1)O[C@H](c1ccc(O)c(O)c1)[C@H](O)[C@H]2c1c(O)cc(O)c2c1O[C@H](c1ccc(O)c(O)c1)[C@@H](O)C2 [NC-074] | 128.1
Oc1cc(O)c2c(c1)O[C@H](c1ccc(O)c(O)c1)[C@H](O)[C@H]2c1c(O)cc(O)c2c1O[C@H](c1ccc(O)c(O)c1)[C@H](O)C2 [NC-075] | 93.7
CCCOC(=O)c1cc(O)c(O)c(O)c1 [NC-076] | 33.6
O=C(O)c1ccc(O)c(O)c1 [NC-077] | 21.1
Oc1cccc(O)c1O [NC-078] | 22.7
O=c1c(O)c(-c2ccc(O)c(O)c2)oc2cc(O)c(O)c(O)c12 [NC-079] | 90.2
O=c1c(O)c(-c2ccc(O)c(O)c2)oc2cc(O)cc(O)c12 [NC-080] | 125.8
COc1cc(O)c2c(=O)c(OC)c(-c3ccc(OC)c(OC)c3)oc2c1 [NC-081] | 65.0
C[C@@H]1O[C@@H](Oc2c(-c3ccc(O)c(O)c3)oc3cc(O)cc(O)c3c2=O)[C@H](O)[C@H](O)[C@H]1O.O.O [NC-083] | 11.4
O=C(O)[C@]1(O)C[C@@H](O)[C@@H](O)[C@H](O)C1 [NC-084] | 98.2
Oc1cccc(O)c1 [NC-085] | 83.0
Oc1ccc(C=Cc2cc(O)cc(O)c2)cc1 [NC-086] | 103.4
COc1cc(O)c2c(=O)c(O)c(-c3ccc(O)c(O)c3)oc2c1 [NC-087] | 119.1
O=C(/C=C/c1ccc(O)c(O)c1)O[C@H](Cc1ccc(O)c(O)c1)C(=O)O [NC-088] | 120.3
C[C@@H]1O[C@@H](OC[C@H]2O[C@@H](Oc3c(-c4ccc(O)c(O)c4)oc4cc(O)cc(O)c4c3=O)[C@H](O)[C@@H](O)[C@@H]2O)[C@H](O)[C@H](O)[C@H]1O [NC-090] | 44.1
OCc1ccccc1O[C@@H]1O[C@H](CO)[C@@H](O)[C@H](O)[C@H]1O [NC-091] | 104.4
O=C(O)c1ccccc1O [NC-092] | 69.1
COc1cc(C2Oc3cc([C@H]4Oc5cc(O)cc(O)c5C(=O)[C@@H]4O)ccc3OC2CO)ccc1O (stereo partly shown) [NC-093] | 22.4
COc1cc(/C=C/C(=O)O)cc(OC)c1O [NC-095] | 22.0
C=CCC(=NOS(=O)(=O)[O-])SC1OC(CO)C(O)C(O)C1O.O.[K+] (stereo not shown) [NC-096] | 47.6
